Experimental data as given in BindingDB's records for doi:10.1016/s0960-894x(98)00542-3 (University of Tokyo, 1998).

Each compound was assayed against Chitinase (Trichoderma) (assay: Compound was evaluated for inhibitory activity against Trichoderma Chitinase).

Row | SMILES | IC50 [nM]
1 | CC(=O)NC(CO)C(OC(CO)CO)OC1C(CO)OC(OC2C(O)C3N=C(N(C)C)OC3C2CO)C(NC(C)=O)C1O (centres undefined) | 80
2 | CC(=O)NC(/C=N/NC(=O)CCCCCNC(=O)CCCCC1SC[C@H]2NC(=O)N[C@@H]12)C(OC(C=O)CO)OC1C(CO)OC(OC2C(O)C3N=C(N(C)C)OC3C2CO)C(NC(C)=O)C1O (some centres undefined) | 41.1
3 | CC(=O)NC(/C=N/NC(=O)CCCCCNC(=O)CCCCC1SC[C@H]2NC(=O)N[C@@H]12)C(OC(CO)CO)OC1C(CO)OC(OC2C(O)C3N=C(N(C)C)OC3C2CO)C(NC(C)=O)C1O (some centres undefined) | 41
4 | CC(=O)NC(/C=N/NC(=O)CCCCCNC(=O)CCCCC1SC[C@@H]2NC(=O)N[C@H]12)C(OC(/C=N/NC(=O)CCCCCNC(=O)CCCCC1SC[C@@H]2NC(=O)N[C@H]12)CO)OC1C(CO)OC(OC2C(O)C3N=C(N(C)C)OC3C2CO)C(NC(C)=O)C1O (some centres undefined) | 7.53
